Measurements: ChEMBL document CHEMBL4396894, “The photodynamic activities of dimethyl 131-[2-(guanidinyl)ethylamino] chlorin e6 photosensitizers in A549 tumor” (Eur J Med Chem, 2019)
The source made the active and inactive calls. The rule behind the calls is not given here.

Legend:
[1] = Absorption property of the compound in DMSO assessed as maximum absorption wavelength at 1 to 20 uM by UV-Vis spectra analysis; format: physicochemical
[2] = tested on: A549; assay: Photodynamic antitumor activity against human A549 cells xenografted in BALB/c nude mouse assessed as decrease in tumor growth at 0.15 mg/kg, iv irradiated with laser light at 120 J/cm2 measured up to 14 days; format: functional, organism-based
[3] = tested on: A549; assay: Dark toxicity in human A549 cells xenografted in BALB/c nude mouse assessed as increase in limb tumor tissue damage at 0.15 mg/kg, iv measured 24 hrs post treatment by H and E staining based histological assay; format: organism-based; settings: in vivo
[4] = tested on: A549; assay: Photodynamic cytotoxicity against human A549 cells assessed as reduction in cell viability preincubated for 24 hrs followed by compound washout and subsequent 650 nanometer laser light irradiation at 0.5 to 2 J/cm2 measured by MTT assay; format: functional, cell-based
[5] = tested on: A549; assay: Photodynamic antitumor activity against human A549 cells xenografted in BALB/c nude mouse assessed as increase in necrosis at 0.15 mg/kg, iv irradiated with laser light at 120 J/cm2 measured 24 hrs post light irradiation by TUNEL staining based histological analysis; format: functional, organism-based
[6] = Photobleaching property of the compound in DMSO at 10 uM irradiated with 650 nm laser light measured up to 90 mins by absorption spectra analysis
[7] = tested on: A549; assay: Photodynamic antitumor activity against human A549 cells xenografted in BALB/c nude mouse assessed as increase in necrosis at 0.15 mg/kg, iv irradiated with laser light at 120 J/cm2 measured 24 hrs post light irradiation by H and E staining based histological analysis; format: functional, organism-based
[8] = tested on: A549; assay: Photodynamic antitumor activity against human A549 cells xenografted in BALB/c nude mouse assessed as increase in tumor tissue damage at 0.15 mg/kg, iv irradiated with laser light at 120 J/cm2 measured 24 hrs post light irradiation by H and E staining based histological analysis; format: functional, organism-based
[9] = tested on: A549; assay: Dark toxicity in human A549 cells assessed as reduction in cell viability at 0.1 to 0.9 uM after 24 hrs by MTT assay; format: cell-based; settings: a549, 24 h
[10] = tested on: A549; assay: Dark toxicity in human A549 cells xenografted in BALB/c nude mouse assessed as reduction in tumor growth at 0.15 mg/kg, iv measured up to 14 days; format: organism-based; settings: in vivo, 336 h
[11] = tested on: A549; assay: Photodynamic antitumor activity against human A549 cells xenografted in BALB/c nude mouse assessed as increase in apoptosis at 0.15 mg/kg, iv irradiated with laser light at 120 J/cm2 measured 24 hrs post light irradiation by TUNEL staining based histological analysis; format: functional, organism-based
[12] = tested on: A549; assay: Photodynamic antitumor activity against human A549 cells xenografted in BALB/c nude mouse assessed as increase in tumor tissue damage at 0.15 mg/kg, iv irradiated with laser light at 120 J/cm2 measured 24 hrs post light irradiation by TUNEL staining based histological analysis; format: functional, organism-based
[13] = tested on: A549; assay: Photodynamic cytotoxicity against human A549 cells assessed as reduction in cell viability preincubated for 24 hrs followed by compound washout and subsequent 650 nanometer laser light irradiation at 1 J/cm2 measured by MTT assay; format: functional, cell-based; settings: A549, light or radiation study
[14] = tested on: A549; assay: Photodynamic antitumor activity against human A549 cells xenografted in BALB/c nude mouse assessed as increase in apoptosis at 0.15 mg/kg, iv irradiated with laser light at 120 J/cm2 measured 24 hrs post light irradiation by H and E staining based histological analysis; format: functional, organism-based
[15] = Emission property of a compound in DMSO assessed as red shift at 5 uM by 3D fluorescence spectra analysis; format: physicochemical
[16] = Induction of singlet oxygen generation in DMF solution assessed as singlet oxygen quantum yield irradiated with 650 nanometer laser light for 5 to 30 secs measured immediately by DPBF-based assay; format: functional
[17] = tested on: A549; assay: Dark toxicity in human A549 cells xenografted in BALB/c nude mouse assessed as increase in limb tumor tissue damage at 0.15 mg/kg, iv measured 24 hrs post treatment by TUNEL staining based histological assay; format: organism-based; settings: in vivo
[18] = tested on: A549; assay: Photodynamic cytotoxicity against human A549 cells assessed as reduction in cell viability preincubated for 24 hrs followed by compound washout and subsequent 650 nanometer laser light irradiation at 2 J/cm2 measured by MTT assay; format: functional, cell-based; settings: A549, light or radiation study
[19] = Drug localization in lysosome of human A549 cells at 1 uM after 4 hrs by lyso-tracker blue based laser confocal microscopic analysis; format: ADME, subcellular; settings: a549, 4 h
[20] = tested on: A549; assay: Photodynamic cytotoxicity against human A549 cells assessed as reduction in cell viability preincubated for 24 hrs followed by compound washout and subsequent 650 nanometer laser light irradiation at 0.5 J/cm2 measured by MTT assay; format: functional, cell-based; settings: A549, light or radiation study
[21] = Drug uptake in human A549 cells measured after 1 to 24 hrs by fluorescence spectrophotometry; format: ADME, cell-based
[22] = tested on: A549; assay: Photodynamic antitumor activity against human A549 cells xenografted in BALB/c nude mouse assessed as tumor growth inhibition at 0.4 mg/kg, iv irradiated with laser light at 120 J/cm2 measured up to 14 days; format: functional; settings: A549, light or radiation study, 336 h, read-out: TGI
[23] = Drug localization in mitochondria of human A549 cells at 1 uM after 4 hrs by mito-tracker green based laser confocal microscopic analysis; format: ADME; settings: a549, 4 h
[24] = tested on: A549; assay: Induction of intracellular ROS generation in human A549 cells at 1 uM preincubated for 4 hrs followed by compound washout measured under 650 nanometer laser light irradiation at 2 J/cm2 by DCFDA dye-based fluorescence microscopic analysis; format: functional, cell-based
[25] = Drug localization in endoplasmic reticulum of human A549 cells at 1 uM after 4 hrs by DiOC6(3) ER-tracker green based laser confocal microscopic analysis; format: ADME, subcellular; settings: a549, 4 h
[26] = tested on: A549; assay: Photodynamic antitumor activity against human A549 cells xenografted in BALB/c nude mouse assessed as decrease in tumor weight at 0.15 mg/kg, iv irradiated with laser light at 120 J/cm2 measured 13 days post light irradiation; format: functional, organism-based
[27] = tested on: A549; assay: Photodynamic cytotoxicity against human A549 cells assessed as reduction in cell viability at 0.1 to 0.9 uM preincubated for 24 hrs followed by compound washout and subsequent 650 nanometer laser light irradiation at 0.5 to 2 J/cm2 measured by MTT assay; format: functional, cell-based

SMILES	Activity [1]	Activity [2]	Activity [3]	Activity [4]	Activity [5]	Activity [6]	Activity [7]	Activity [8]	Activity [9]	Activity [10]	Activity [11]	Activity [12]	IC50 [13]	Activity [14]	Activity [15]	Activity [16]	Activity [17]	IC50 [18]	IC50 [20]	Activity [26]	other results
C=Cc1c(C)c2cc3nc(c(CC(=O)OC)c4[nH]c(cc5nc(cc1[nH]2)C(C)=C5CC)c(C)c4C(=O)NCCNC(=N)N)[C@@H](CCC(=O)OC)[C@@H]3C	403 to 664 nm	Active	Non-Toxic	Dose-dependent effect	Active	inactive	Active	Active	Non-Toxic	Non-Toxic	Active	Active	886 nM	Active	4 nm	2.03	Non-Toxic	545 nM	1260 nM	Active	Drug uptake [19]: Active; Drug uptake [21]: Active; inhibition in vivo at 0.4 mg/kg [22]: 100%; Drug uptake [23]: Active; Activity [24]: Active; Drug uptake [25]: Active
Oc1cccc(-c2c3nc(c(-c4cccc(O)c4)c4ccc([nH]4)c(-c4cccc(O)c4)c4nc(c(-c5cccc(O)c5)c5ccc2[nH]5)CC4)C=C3)c1 [TEMOPORFIN]		Active							Non-Toxic	Non-Toxic			779 nM			0.47 to 0.48		702 nM	1100 nM	Active	Activity [27]: Active
C=Cc1c(C)c2cc3nc(c(CC(=O)OC)c4[nH]c(cc5nc(cc1[nH]2)C(C)=C5CC)c(C)c4C(=O)NCCN/C(=N\C(=O)OC(C)(C)C)NC(=O)OC(C)(C)C)[C@@H](CCC(=O)OC)[C@@H]3C	403 to 664 nm	Active	Non-Toxic	Dose-dependent effect	Active	inactive	Active	Active	Non-Toxic	Non-Toxic	Active	Active	397 nM	Active	4 nm	1.98	Non-Toxic	197 nM	542 nM	Active	Drug uptake [19]: Active; Drug uptake [21]: Active; inhibition in vivo at 0.4 mg/kg [22]: 100%; Drug uptake [23]: Active; Activity [24]: Active; Drug uptake [25]: Active
